PubChem BioAssay (NCI)
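In this assay, cells in 96-well plates receive the compound at five concentrations for 48 hours. Endpoints are linearly interpolated between the surrounding concentrations. TGI is the concentration that stops growth completely.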

Experiments:
Assay in all cases: DTP human tumour cell line panel, 48 h
[1] = system: 786-0 renal
[2] = system: A498 renal
[3] = system: A549 NSCLC
[4] = system: ACHN renal
[5] = system: BT-549 breast
[6] = system: CAKI-1 renal
[7] = system: CCRF-CEM leukemia
[8] = system: COLO 205 colon
[9] = system: DU-145 prostate
[10] = system: EKVX NSCLC
[11] = system: HCC-2998 colon
[12] = system: HCT-116 colon
[13] = system: HCT-15 colon
[14] = system: HL-60(TB) leukemia
[15] = system: HOP-62 NSCLC
[16] = system: HOP-92 NSCLC
[17] = system: HS 578T breast
[18] = system: HT29 colon
[19] = system: IGROV1 ovarian
[20] = system: K-562 leukemia
[21] = system: KM12 colon
[22] = system: LOX IMVI melanoma
[23] = system: M14 melanoma
[24] = system: MALME-3M melanoma
[25] = system: MCF7 breast
[26] = system: MDA-MB-231 breast
[27] = system: MDA-MB-435
[28] = system: MDA-N
[29] = system: MOLT-4 leukemia
[30] = system: NCI-H226 lung
[31] = system: NCI-H23 lung
[32] = system: NCI-H460 lung
[33] = system: NCI-H522 lung
[34] = system: NCI/ADR-RES ovarian
[35] = system: OVCAR-3 ovarian
[36] = system: OVCAR-4 ovarian
[37] = system: OVCAR-5 ovarian
[38] = system: OVCAR-8 ovarian
[39] = system: PC-3 prostate
[40] = system: RPMI-8226 leukemia
[41] = system: RXF 393 renal
[42] = system: SF-268 CNS
[43] = system: SF-295 CNS
[44] = system: SF-539 CNS
[45] = system: SK-MEL-2 melanoma
[46] = system: SK-MEL-28 melanoma
[47] = system: SK-MEL-5 melanoma
[48] = system: SK-OV-3 ovarian
[49] = system: SN12C renal
[50] = system: SNB-19 CNS
[51] = system: SNB-75 CNS
[52] = system: SR leukemia
[53] = system: SW-620 colon
[54] = system: T-47D breast
[55] = system: TK-10 renal
[56] = system: U251 CNS
[57] = system: UACC-257 melanoma
[58] = system: UACC-62 melanoma
[59] = system: UO-31 renal

SMILES: CC(=O)Oc1ccc2c(c1)CC[C@@H]1C2[C@@H](O[N+](=O)[O-])C[C@@]2(C)C1CC[C@@H]2O (some centres undefined)
- TGI [1]: > 100 µM
- TGI [2]: 72.5 µM
- TGI [3]: > 100 µM
- TGI [4]: > 100 µM
- TGI [5]: > 100 µM
- TGI [6]: > 100 µM
- TGI [7]: > 83.2 µM
- TGI [8]: > 88.7 µM
- TGI [9]: > 87.2 µM
- TGI [10]: 93.6 µM
- TGI [11]: 46.2 µM
- TGI [12]: > 100 µM
- TGI [13]: > 100 µM
- TGI [14]: 34.4 µM
- TGI [15]: > 60.5 µM
- TGI [16]: > 100 µM
- TGI [17]: 51.1 µM
- TGI [18]: > 76.6 µM
- TGI [19]: > 100 µM
- TGI [20]: 72.1 µM
- TGI [21]: > 100 µM
- TGI [22]: > 81.2 µM
- TGI [23]: > 100 µM
- TGI [24]: > 100 µM
- TGI [25]: > 90.3 µM
- TGI [26]: > 100 µM
- TGI [27]: 56.2 µM
- TGI [28]: 27.9 µM
- TGI [29]: > 85.8 µM
- TGI [30]: > 100 µM
- TGI [31]: > 100 µM
- TGI [32]: > 89.1 µM
- TGI [33]: > 86.7 µM
- TGI [34]: 97.3 µM
- TGI [35]: > 86.9 µM
- TGI [36]: > 100 µM
- TGI [37]: > 71.8 µM
- TGI [38]: > 86.7 µM
- TGI [39]: > 100 µM
- TGI [40]: 69.7 µM
- TGI [41]: > 100 µM
- TGI [42]: > 83 µM
- TGI [43]: > 100 µM
- TGI [44]: 72.6 µM
- TGI [45]: > 100 µM
- TGI [46]: > 100 µM
- TGI [47]: > 100 µM
- TGI [48]: > 100 µM
- TGI [49]: > 100 µM
- TGI [50]: > 100 µM
- TGI [51]: > 85.2 µM
- TGI [52]: > 88.1 µM
- TGI [53]: > 100 µM
- TGI [54]: > 100 µM
- TGI [55]: > 100 µM
- TGI [56]: > 100 µM
- TGI [57]: > 100 µM
- TGI [58]: > 100 µM
- TGI [59]: > 100 µM
